# Experiments:
# H358 cells = experiment: Anti-proliferative activity, cell-counting kit-8 assay, H358; format: cell-based; conditions: CCK-8
# Procedure: (§1) Cell Assay of EGFR Activity
# (§2) The anti-proliferative activity was determined using cell-counting kit-8 assay (Dojindo, Japan). H358 and A549 cells lines were seeded at a density of 8000 cells/well and 3000 cells/well respectively in 96-well microtiter plates and were incubated at 37° C. overnight in a humidified incubator containing 5% CO2. Cells were dosed with compounds at final concentrations ranging from 0.025 to 80 μM in each well of the plate. Three groups were set up, including compound group to be tested, blank control group, positive control group (gefitinib).
# (§3) The 96-well plate was incubated in cell incubator for 72 hours. The culture fluid was then removed and 100 μl/well of PBS buffer was added. 10 μl/well of CCK-8 solution was added and the assay plate was incubated in the cell incubator for 1 hour. Cell survival was determined by measuring the absorbance at 470 nm using a microplate reader. A calibration curve was prepared using the average data of the 4 wells for each concentration that contain the number of viable cells to determine the IC50 of the target compounds.
# EGFR (T790M) = EGFR (T790M) (Homo sapiens (Human), UniProt P00533, T790M); experiment: Kinase-Glo luminescent kinase assay, EGFR tyrosine kinase inhibitory activity (T790M); format: biochemical
# Procedure: (§4) Determination of the Compound Inhibitory Activity Against EGFR Kinase
# (§5) The inhibitory activity of compounds in formula (I) and (II) were determined using Kinase-Glo luminescent kinase assay. The receptor tyrosine kinase EGFR was tested and Gefitinib, a known EGFR inhibitor, was chosen as the positive control compound. The method is detailed below:
# (§6) The sample compounds were dissolved in DMSO and diluted it to 500 μM concentration with DMSO and transferred to a dose plate. The compounds were serially diluted with DMSO in 5 fold concentration. Then each concentration was diluted 10-fold with the reaction buffer to get a 10× final concentration. Transfer the compounds with concentrations ranging from 0.003 μM to 50 μM to EGFR assay plate to determine their kinase activity with a dose of 1 μL/well.
# (§7) The positive control compound Gifitinib was dissolved in DMSO as 10 mM stock solution and diluted it to 100 μM concentration with DMSO. The control compound was serially diluted with DMSO in 5 fold concentration. Then each concentration was diluted 10-fold with the reaction buffer to get a 10× final concentration.
# (§8) For the HPE (hundred percent effect: No kinase and no compound, but containing ATP, substrate and 1% DMSO) and ZPE (zero percent effect: No compound but containing kinase, ATP, substrate and 1% DMSO) wells, dilute 2 μL DMSO 10-fold with reaction buffer to obtain 10% DMSO solution. Then transfer it to the assay plat, 1 μL/well. The positive control wells contain kinase, ATP, substrate and positive control compound in different concentrations. The sample compound wells contain kinase, ATP, substrate and the compounds to be tested in different concentrations.
# (§9) Preparation of the reagents in need: 4×ATP: dilute ATP 4 times with assay buffer to obtain a working solution; 4× substrate: dilute Poly ([…]: tyrosine) 4 times with assay buffer to obtain a working solution; 2.5×EGFR kinase: dilute EGFR kinase 2.5 times with assay buffer to obtain a working solution.
# (§10) Kinase reaction: Add 10× compounds to the assay plate in a 384-well plate layout, 1 μL/well. For the HPE and ZPE wells, equal volume (1 μL/well) of 10% DMSO was added to the 384-well assay plate; Add 2.5×EGFR kinase into the assay plate in 384-well plate layout, 4 μL/well. For HPE and ZPE wells, an equal volume (4 μL/well) of assay buffer was added to the 384-well assay plate; Centrifuge the assay plate with 1000 rpm for 1 min to mix them; Pre-incubate the assay plate for 30 min at 30° C.; Mix equal volume of 4×ATP and 4× substrate to obtain 2×ATP-substrate mixture which serves as a reaction mixture for the determination of EGFR activity; Add 2×ATP-substrate mixture to the assay plate, 5 μL/well; Centrifuge the assay plate at 1000 rpm for 1 min to mix them; Incubate the assay plate for one hour at 30° C.; Add Kinase glo plus was to each well (10 μL/well), and then incubated the assay plate for 20 min at 27° C.; Read luminescence signal with Envision plate reader.
# EGFR (WT) = EGFR (WT) (Homo sapiens (Human), UniProt P00533); experiment: Kinase-Glo luminescent kinase assay, EGFR tyrosine kinase inhibitory activity (WT); format: biochemical; conditions: EGFR wild type
# Procedure: as §4, §5, §6, §7, §8, §9, §10
# A549 cells = experiment: Anti-proliferative activity, cell-counting kit-8 assay, A549; format: cell-based; conditions: CCK-8
# Procedure: as §1, §2, §3
# [1] = in vivo; cited from earlier work
# remaining 81 kinase = conditions: screening of 85 kinases; selectively inhibits EGFR and 3 other mutants; cited from earlier work
# EGFR = EGFR (Homo sapiens (Human), UniProt P00533); conditions: molecular level; read-out: IC50 against EGFR activity; cited from earlier work
# EGFR, sequence (P00533 25-1210): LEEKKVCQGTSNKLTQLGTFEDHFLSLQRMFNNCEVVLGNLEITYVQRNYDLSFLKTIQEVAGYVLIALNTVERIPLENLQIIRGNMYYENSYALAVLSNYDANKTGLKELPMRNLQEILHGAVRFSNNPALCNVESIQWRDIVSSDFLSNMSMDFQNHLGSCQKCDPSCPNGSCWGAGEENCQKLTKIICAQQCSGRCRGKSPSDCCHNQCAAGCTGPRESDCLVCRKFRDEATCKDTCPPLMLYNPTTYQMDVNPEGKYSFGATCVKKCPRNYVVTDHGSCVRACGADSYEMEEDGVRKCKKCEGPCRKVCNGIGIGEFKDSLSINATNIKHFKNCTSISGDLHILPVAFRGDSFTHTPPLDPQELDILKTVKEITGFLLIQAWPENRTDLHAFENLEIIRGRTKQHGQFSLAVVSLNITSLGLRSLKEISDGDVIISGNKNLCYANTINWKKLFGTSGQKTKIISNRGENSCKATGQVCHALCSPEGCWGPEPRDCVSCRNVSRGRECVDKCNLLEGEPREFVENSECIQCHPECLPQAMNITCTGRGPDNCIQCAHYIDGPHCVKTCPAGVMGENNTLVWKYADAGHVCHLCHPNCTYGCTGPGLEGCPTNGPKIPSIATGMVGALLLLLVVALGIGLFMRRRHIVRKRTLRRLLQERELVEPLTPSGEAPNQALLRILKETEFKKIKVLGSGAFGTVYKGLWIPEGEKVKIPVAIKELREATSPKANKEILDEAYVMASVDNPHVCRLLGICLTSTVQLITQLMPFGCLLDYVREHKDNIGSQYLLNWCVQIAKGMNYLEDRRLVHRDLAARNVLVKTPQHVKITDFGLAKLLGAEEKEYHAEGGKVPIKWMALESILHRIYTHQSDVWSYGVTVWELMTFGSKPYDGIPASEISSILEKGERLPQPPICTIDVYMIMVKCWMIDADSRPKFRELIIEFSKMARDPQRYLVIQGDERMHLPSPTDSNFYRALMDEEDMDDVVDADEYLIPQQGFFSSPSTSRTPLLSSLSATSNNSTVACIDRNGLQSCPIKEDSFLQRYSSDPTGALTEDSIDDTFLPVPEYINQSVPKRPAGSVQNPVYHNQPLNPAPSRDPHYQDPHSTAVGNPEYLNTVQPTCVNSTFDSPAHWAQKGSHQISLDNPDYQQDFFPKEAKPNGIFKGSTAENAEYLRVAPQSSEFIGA
# EGFR (T790M), sequence (P00533 25-1210 T790M): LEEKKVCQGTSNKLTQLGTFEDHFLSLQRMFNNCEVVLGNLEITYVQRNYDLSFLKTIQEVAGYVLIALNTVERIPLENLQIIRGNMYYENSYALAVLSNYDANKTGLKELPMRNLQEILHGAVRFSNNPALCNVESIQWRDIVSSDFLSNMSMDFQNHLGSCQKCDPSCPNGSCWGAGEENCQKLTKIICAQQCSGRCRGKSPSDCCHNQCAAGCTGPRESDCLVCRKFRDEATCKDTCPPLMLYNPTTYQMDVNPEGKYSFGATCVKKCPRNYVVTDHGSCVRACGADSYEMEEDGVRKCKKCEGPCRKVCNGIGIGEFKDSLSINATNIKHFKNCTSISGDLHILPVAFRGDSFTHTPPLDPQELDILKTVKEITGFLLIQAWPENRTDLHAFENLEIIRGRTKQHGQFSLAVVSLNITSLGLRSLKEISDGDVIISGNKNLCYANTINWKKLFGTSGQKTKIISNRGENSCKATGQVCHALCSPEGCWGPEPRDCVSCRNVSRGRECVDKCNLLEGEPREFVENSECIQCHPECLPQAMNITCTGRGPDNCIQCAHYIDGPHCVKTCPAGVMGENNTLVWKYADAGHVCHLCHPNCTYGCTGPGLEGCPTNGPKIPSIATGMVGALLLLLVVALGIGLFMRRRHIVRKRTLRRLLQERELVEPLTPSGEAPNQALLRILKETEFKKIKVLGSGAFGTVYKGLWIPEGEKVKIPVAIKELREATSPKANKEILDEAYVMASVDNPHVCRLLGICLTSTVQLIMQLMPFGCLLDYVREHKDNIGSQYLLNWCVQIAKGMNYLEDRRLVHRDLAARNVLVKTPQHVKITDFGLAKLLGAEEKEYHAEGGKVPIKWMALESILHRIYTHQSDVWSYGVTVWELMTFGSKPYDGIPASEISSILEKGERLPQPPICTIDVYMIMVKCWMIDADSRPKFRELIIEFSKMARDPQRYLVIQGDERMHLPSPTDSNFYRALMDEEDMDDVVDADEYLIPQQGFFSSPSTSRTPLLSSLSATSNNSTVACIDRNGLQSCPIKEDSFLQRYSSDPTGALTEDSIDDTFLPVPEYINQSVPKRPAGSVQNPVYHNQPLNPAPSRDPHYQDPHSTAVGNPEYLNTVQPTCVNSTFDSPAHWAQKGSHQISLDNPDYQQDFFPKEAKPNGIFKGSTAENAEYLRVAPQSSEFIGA
# EGFR (WT), sequence (P00533 25-1210): as the sequence (P00533 25-1210) above
"IC50 (H358 cells; Homo sapiens, NCI-H358, 72 h)",IC50 (EGFR (T790M)),IC50 (EGFR (WT)),"IC50 (A549 cells; Homo sapiens, A549, 72 h)",SMILES,IC50 (H358 cells; 72 hours),IC50 (A549 cells; 72 hours),oral bioavailability [1],effect on the remaining 81 kinase (remaining 81 kinase),IC50 (EGFR)
6.92 µM,< 0.05 µM,< 0.05 µM,11.6 µM,"CC(C)Oc1cc2ncnc(Nc3ccc(F)c(Cl)c3)c2c2c1OCCO2 [Compound I-7, N-(3-Chloro-4-fluorophenyl)-5-isopropoxy-2,3-dihydro-[1,4]dioxino[2,3-f]quinazolin-10-amine]",–,–,–,–,–
5.54 µM,< 0.05 µM,< 0.05 µM,6.08 µM,"C#Cc1cccc(Nc2ncnc3cc(OC(C)C)c4c(c23)OCCO4)c1 [Compound I-8, N-(3-Ethynylphenyl)-5-isopropoxy-2,3-dihydro-[1,4]dioxino[2,3-f]quinazolin-10-amine]",–,–,–,–,–
17.5 µM,< 0.3 µM,< 0.3 µM,17.5 µM,"CCOC(C)Oc1cc2ncnc(Nc3ccc(F)c([N+](=O)[O-])c3)c2c2c1OCCO2 (stereo not drawn) [Compound I-16, 5-(1-Ethoxyethoxy)-N-(4-fluoro-3-nitrophenyl)-2,3-dihydro-[1,4]dioxino[2,3-f]quinazolin-10-amine]",–,–,–,–,–
1.47 µM,< 1 µM,< 0.1 µM,6.42 µM,"C#Cc1cccc(Nc2ncnc3cc(OC4CCOCC4)c4c(c23)OCCO4)c1 [Compound I-21, N-(3-Ethynylphenyl)-5-(tetrahydro-2H-pyran-4-yloxy)-2,3-dihydro-[1,4]dioxino[2,3-f]quinazolin-10-amine]",–,–,–,–,–
> 20 µM,< 1 µM,< 0.1 µM,> 20 µM,"Fc1cc(Nc2ncnc3cc(OC4CCOCC4)c4c(c23)OCCO4)ccc1Cl [Compound I-22, N-(4-Chloro-3-fluorophenyl)-5-(tetrahydro-2H-pyran-4-yloxy)-2,3-dihydro-[1,4]dioxino[2,3-f]-quinazolin-10-amine]",–,–,–,–,–
13 µM,< 0.1 µM,< 0.05 µM,15.1 µM,"Fc1cc(Nc2ncnc3cc(OC4CCOC4)c4c(c23)OCCO4)ccc1Cl (stereo not drawn) [Compound I-23, N-(4-Chloro-3-fluorophenyl)-5-(tetrahydrofuran-3-yloxy)-2,3-dihydro-[1,4]dioxino[2,3-f]quinazolin-10-amine]",–,–,–,–,–
8.58 µM,< 0.3 µM,< 0.05 µM,9.69 µM,"C#Cc1cccc(Nc2ncnc3cc(OC4CCOC4)c4c(c23)OCCO4)c1 (stereo not drawn) [Compound I-24, N-(3-Ethynylphenyl)-5-(tetrahydrofuran-3-yloxy)-23-dihydro-[1,4]dioxino[2,3-f]quinazolin-10-amine]",–,–,–,–,–
10.6 µM,–,–,10.4 µM,"COCC(C)Oc1cc2ncnc(Nc3ccc(F)c(Cl)c3)c2c2c1OCCO2 (stereo not drawn) [Compound I-25, N-(3-Chloro-4-fluorophenyl)-5-(1-methoxypropan-2-yloxy)-2,3-dihydro-[1,4]dioxino[2,3-H]quinazolin-10-amine]",–,–,–,–,–
5.93 µM,< 0.05 µM,< 0.05 µM,13.9 µM,"COCCOc1cc2ncnc(Nc3ccc(F)c(Cl)c3)c2c2c1OCCO2 [Compound I-30, N-(3-Chloro-4-fluorophenyl)-5-(2-methoxyethoxy)-2,3-dihydro-[1,4]dioxino[2,3-f]quinazolin-10-amine]",–,–,–,–,–
9.64 µM,< 1 µM,< 0.2 µM,12.1 µM,"COCCOc1cc2ncnc(Nc3cccc(OC)c3)c2c2c1OCCO2 [Compound I-33, 5-(2-Methoxyethoxy)-N-(3-methoxyphenyl)-2,3-dihydro-[1,4]dioxino[2,3-f]quinazolin-10-amine]",–,–,–,–,–
8.89 µM,< 0.05 µM,< 0.05 µM,10.5 µM,"C#Cc1cccc(Nc2ncnc3cc(OCC)c4c(c23)OCCO4)c1 [Compound I-35, 5-Ethoxy-N-(3-ethynylphenyl)-2,3-dihydro-[1,4]dioxino[2,3-f]quinazolin-10-amine]",–,–,–,–,–
7.41 µM,< 0.05 µM,< 0.05 µM,12 µM,"CCOc1cc2ncnc(Nc3cccc(OC)c3)c2c2c1OCCO2 [Compound I-36, 5-Ethoxy-N-(3-methoxyphenyl)-2,3-dihydro-[1,4]dioxino[2,3-f]quinazolin-10-amine]",–,–,–,–,–
11.6 µM,< 0.05 µM,< 0.05 µM,12.1 µM,"CCOc1cc2ncnc(Nc3ccc(C)c(Cl)c3)c2c2c1OCCO2 [Compound I-37, N-(3-Chloro-4-methylphenyl)-5-ethoxy-2,3-dihydro-[1,4]dioxino[2,3-f]quinazolin-10-amine]",–,–,–,–,–
6.1 µM,< 0.1 µM,< 0.05 µM,10.2 µM,"CCOc1cc2ncnc(Nc3ccc(C)cc3)c2c2c1OCCO2 [Compound I-39, 5-Ethoxy-N-p-tolyl-2,3-dihydro-[1,4]dioxino[2,3-f]quinazolin-10-amine]",–,–,–,–,–
9.51 µM,< 0.1 µM,< 0.05 µM,11.5 µM,"C#Cc1cccc(Nc2ncnc3cc(OCC4CCCO4)c4c(c23)OCCO4)c1 (stereo not drawn) [Compound I-41, N-(3-Ethynylphenyl)-5-((tetrahydrofuran-2-yl)methoxy)-2,3-dihydro-[1,4]dioxino[2,3-f]quinazolin-10-amine]",–,–,–,–,–
–,–,–,–,"C#Cc1cccc(Nc2ncnc3cc(OCCOC)c(OCCOC)cc23)c1 [erlotinib, Erlotinib]",–,–,80%,–,–
–,–,–,–,"C#Cc1cccc(Nc2ncnc3cc4c(cc23)OCCOCCOCCO4)c1 [icotinib, Icotinib]",–,–,–,no significant effect,5 µM

SMILES,"IC50 (H358 cells; Homo sapiens, NCI-H358, 72 h)",IC50 (EGFR (T790M)),IC50 (EGFR (WT)),"IC50 (A549 cells; Homo sapiens, A549, 72 h)",IC50 (H358 cells; 72 hours),IC50 (A549 cells; 72 hours),oral bioavailability [1],effect on the remaining 81 kinase (remaining 81 kinase),IC50 (EGFR)
"O=C1COc2cc3ncnc(Nc4ccc(F)c(Cl)c4)c3cc2N1CCCN1CCOCC1 [II-1, 4-((3-Chloro-4-fluorophenyl)amino)-6-(3-morpholinopropyl)-6H-[1,4]oxazino[3,2-g]quinazolin-7(8H)-one]",–,< 0.3 µM,< 0.05 µM,–,13.5 µM,7.51 µM,–,–,–
"O=C1COc2cc3ncnc(Nc4ccc(F)c(Cl)c4)c3cc2N1CCCN1CCOCC1 [II-2, 4-((3-Chloro-4-fluorophenyl)amino)-6-(3-morpholinopropyl)-6H-[1,4]oxazino[3,2-g]quinazolin-7(8H)-one]",13.5 µM,< 1 µM,< 0.2 µM,5.58 µM,–,–,–,–,–
